Molecules are shown by their SMILES.

13 compounds from patent publication US5384411A, “Immobilization of PH-sensitive dyes to solid supports” (Hewlett-Packard Company, priority 1991, dated 1995) can be followed below.

The first series can be described thus: pKa and pH dye properties of amino-phenolphthaleins bound to Sepharose 6B. Format: physicochemical. To be noted: dye bound to Sepharose 6B. The protocol:
The amino-phenolphthaleins of Examples 2A-2E were reacted with a solid support by the following general procedure:
Place 0.5 g of Sepharose 6B (commercially available from Pharmacia Inc., Piscataway, N.J. as order number 17-0480-01) into deionized water for 30-45 min. to swell. Collect the white gel. In reaction beaker, place 0.3-0.5 g of an appropriate amino-phthalein into 3 ml dioxane and 20 ml of carbonate buffer (pH 10.5). Add the gel and let sit at 35° for 20 hrs. Collect the gel on a glass frit and wash with water, ethanol, acetone and high and low pH buffers. Dialyze the gel against deionized water for 2 days.
As to `Nc1cccc2c1C(=O)OC2(c1ccc(O)cc1)c1ccc(O)cc1` [Example 2A], the pKa result is given as “approximately 10”.
Compound `Cc1cc(C2(c3cc(C)c(O)cc3C)OC(=O)c3c(N)cccc32)c(C)cc1O` [Example 2B] showed a pKa of approximately 12.
Regarding `Nc1cccc2c1C(=O)OC2(c1ccc(O)c(Br)c1)c1ccc(O)c(Br)c1` [Example 2C], the “retention of dye properties after coupling” value was “no longer retained their dye properties”.
Consider `Nc1cccc2c1C(=O)OC2(c1ccc(O)c(Cl)c1)c1ccc(O)c(Cl)c1` [Example 2D], for which the “retention of dye properties after coupling” value is reported as “no longer retained their dye properties”.

The next series in a line: pKa and color change with pH of carboxy-phenolphthaleins bound to Sepharose 4B. It is filed as physicochemical. The note with it: dye bound to Sepharose 4B. The protocol:
Place 0.5 g of Sepharose 4B (commercially available from Pharmacia Inc., Piscataway, N.J. as order number 17-0470-01) in 0.5M NaCl for 1 hour and then collect and set aside. Place the appropriate carboxy-phenolphthalein (1.3 mmol) in about 1 ml dimethylformamide and cool to 0° C. in a ice-ethanol bath. […] Leave the reaction at this cold temperature for 15-20 minutes. Then add the Sepharose 4B gel to reaction along with a scoop of benzyltributyl ammonium bromide and 30 ml of borate buffer (pH 9). Place the reaction flask on a shaker overnight at room temperature. Collect the support on a frit and wash with volumes of water, ethanol, acetone and buffered water. Finally, dialyze the support against water for 1-2 days.
Regarding `O=C(O)c1ccc2c(c1)C(=O)OC2(c1ccc(O)cc1)c1ccc(O)cc1` [Example 4A], the pKa was determined as 10.
For the compound `O=C(O)c1ccc2c(c1)C(=O)OC2(c1ccc(O)c2ccccc12)c1ccc(O)c2ccccc12` [Example 4E], the pKa is on record as more than 10.
For `O=C(O)c1ccc2c(c1)C(=O)OC2(c1cc([N+](=O)[O-])c(O)cc1[N+](=O)[O-])c1cc([N+](=O)[O-])c(O)cc1[N+](=O)[O-]` [Example 4G], the pKa is listed as ~ 4.
Same read-out and setting: for `O=C(O)c1ccc2c(c1)C(=O)OC2(c1cc(Cl)c(O)c([N+](=O)[O-])c1)c1cc(Cl)c(O)c([N+](=O)[O-])c1` [Example 4H] the value was ~ 5.5; for `O=C(O)c1ccc2c(c1)C(=O)OC2(c1ccc(O)c(O)c1)c1ccc(O)c(O)c1` [Example 4I], ~ 7.
Same read-out and setting: in the case of `O=C(O)c1ccc2c(c1)C(=O)OC2(c1cc(O)c(O)cc1[N+](=O)[O-])c1cc(O)c(O)cc1[N+](=O)[O-]` [Example 4J] it was ~ 6.

The next series in a line: pKa of carboxy-sulfonephthaleins bound to aminoethyl cellulose. It is filed as physicochemical. To be noted: dye bound to aminoethyl cellulose. The protocol:
The carboxy-sulfonephthaleins of Examples 8A-8C were reacted with a solid support by the following general procedure:
Place 0.5 g aminoethyl cellulose (commercially available from Serva Biochemicals, Westbury, N.Y. 11590 as order no. 45015) in 30 ml of deionized water and set aside. Place 0.2 g of an appropriate dye in 25 ml of pyridine-HCl buffer (pH 5.8). Add the filtered cellulose to this reaction along with 83 mg of N-ethyl-N'-(3-dimethylaminopropyl)carbodimidehydrochloride (EDC). Place the reaction on a shaker overnight at room temperature. Collect the support and wash with large volumes of water, ethanol, acetone, DMF and pH buffers over the course of 2 days. Collect a final colored support. Also, this same procedure was run using aminopropyl silica beads (Serva #43660) in place of cellulose.
The pKa 's of the carboxy-sulfonephenolphthaleins bound to the solid support (aminoethyl cellulose) was determined and are set forth in Table 4 below: […]
Turning to `O=C(O)c1ccc2c(c1)S(=O)(=O)OC2(c1ccc(O)cc1)c1ccc(O)cc1` [Example 8A], the pKa was 7.6.
On the same count and under the same terms, in the case of `O=C(O)c1ccc2c(c1)S(=O)(=O)OC2(c1ccc(O)c(Cl)c1)c1ccc(O)c(Cl)c1` [Example 8B] it was 6.2; in that of `Cc1cc(O)c(C(C)C)cc1C1(c2cc(C(C)C)c(O)cc2C)OS(=O)(=O)c2cc(C(=O)O)ccc21` [Example 8C], 9.2.

As usually defined, the pKa is the negative logarithm of the acid dissociation constant.
